Experimental data from paper PMC4904262 (ACS Medicinal Chemistry Letters, 2016).

Tests used:
Settings in all cases: 1 µM, ATP at Km
[1] = target: ALK4 (Homo sapiens, UniProt P36896)
[2] = target: BRK (Homo sapiens, UniProt Q13882)
[3] = target: BRSK1 (Homo sapiens, UniProt Q8TDC3)
[4] = target: CAMKI (Homo sapiens, UniProt Q14012)
[5] = target: CAMKIV (Homo sapiens, UniProt Q16566)
[6] = target: CDK2/CYCLINE (Homo sapiens, UniProt P24941)
[7] = target: CDK7/CYCLINH/MAT1 (Homo sapiens, UniProt P50613)
[8] = target: CHK1 (Homo sapiens, UniProt O14757)
[9] = target: CK2ALPHA2 (Homo sapiens, UniProt P19784)
[10] = target: CSK (Homo sapiens, UniProt P41240)
[11] = target: DMPK (Homo sapiens, UniProt Q09013)
[12] = target: EPHA7 (Homo sapiens, UniProt Q15375)
[13] = target: FGFR3 (Homo sapiens, UniProt P22607)
[14] = target: FGR (Homo sapiens, UniProt P09769)
[15] = target: GSK3BETA (Homo sapiens, UniProt P49841)
[16] = target: ITK (Homo sapiens, UniProt Q08881)
[17] = target: JNK2ALPHA2 (Homo sapiens, UniProt P45984)
[18] = target: KDR (Homo sapiens, UniProt P35968)
[19] = target: CKIT (Homo sapiens, UniProt P10721)
[20] = target: LIMK1 (Homo sapiens, UniProt P53667)
[21] = target: MINK (Homo sapiens, UniProt Q8N4C8)
[22] = target: MKK7BETA (Homo sapiens, UniProt O14733)
[23] = target: MST3 (Homo sapiens, UniProt Q9Y6E0)
[24] = target: PAK6 (Homo sapiens, UniProt Q9NQU5)
[25] = target: PDK1 (Homo sapiens, UniProt O15530)
[26] = target: PI3K BETA (Homo sapiens, UniProt P42338)
[27] = target: PKCEPSILON (Homo sapiens, UniProt Q02156)
[28] = target: PRKCQ (Homo sapiens, UniProt Q04759)
[29] = target: PKG1ALPHA (Homo sapiens, UniProt Q13976)
[30] = target: PRK2 (Homo sapiens, UniProt Q16513)
[31] = target: CRAF (Homo sapiens, UniProt P04049)
[32] = target: RSK3 (Homo sapiens, UniProt Q15349)
[33] = target: SNK (Homo sapiens, UniProt Q9NYY3)
[34] = target: TBK1 (Homo sapiens, UniProt Q9UHD2)
[35] = target: TRKB (Homo sapiens, UniProt Q16620)
[36] = target: ZIPK (Homo sapiens, UniProt O43293)
[37] = target: CK1GAMMA2 (Homo sapiens, UniProt P78368)
[38] = target: DCAMKL2 (Homo sapiens, UniProt Q8N568)
[39] = target: GRK5 (Homo sapiens, UniProt P34947)
[40] = target: CLK3 (Homo sapiens, UniProt P49761)
[41] = target: FAK (Homo sapiens, UniProt Q05397)
[42] = target: GRK7 (Homo sapiens, UniProt Q8WTQ7)
[43] = target: MTOR (Homo sapiens, UniProt P42345)
[44] = target: PLK1 (Homo sapiens, UniProt P53350)
[45] = target: MTOR/FKBP12 (Homo sapiens, UniProt P42345)

Sequence of FGFR3 (P22607 23-806): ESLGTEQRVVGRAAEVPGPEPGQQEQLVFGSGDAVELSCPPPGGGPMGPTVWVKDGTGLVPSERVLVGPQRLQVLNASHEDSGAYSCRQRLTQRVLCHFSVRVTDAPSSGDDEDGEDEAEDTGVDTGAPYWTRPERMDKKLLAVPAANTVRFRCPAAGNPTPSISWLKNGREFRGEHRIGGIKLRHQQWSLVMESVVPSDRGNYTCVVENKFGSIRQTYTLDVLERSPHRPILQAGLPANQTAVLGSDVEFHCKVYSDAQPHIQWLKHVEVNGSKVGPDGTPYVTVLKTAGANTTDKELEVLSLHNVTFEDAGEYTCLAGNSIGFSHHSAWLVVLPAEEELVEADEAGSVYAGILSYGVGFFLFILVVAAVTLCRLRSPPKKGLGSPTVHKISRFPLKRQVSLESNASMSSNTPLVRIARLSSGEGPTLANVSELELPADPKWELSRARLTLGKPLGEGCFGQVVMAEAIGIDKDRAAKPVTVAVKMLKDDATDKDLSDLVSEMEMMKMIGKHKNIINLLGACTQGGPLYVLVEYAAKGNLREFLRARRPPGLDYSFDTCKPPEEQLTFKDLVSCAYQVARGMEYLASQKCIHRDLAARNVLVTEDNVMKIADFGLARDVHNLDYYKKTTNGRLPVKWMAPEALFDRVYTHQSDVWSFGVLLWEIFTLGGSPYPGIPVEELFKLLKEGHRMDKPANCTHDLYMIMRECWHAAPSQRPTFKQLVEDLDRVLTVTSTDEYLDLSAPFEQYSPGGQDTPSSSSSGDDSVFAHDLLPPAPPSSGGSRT
Sequence of LIMK1 (P53667 whole entry): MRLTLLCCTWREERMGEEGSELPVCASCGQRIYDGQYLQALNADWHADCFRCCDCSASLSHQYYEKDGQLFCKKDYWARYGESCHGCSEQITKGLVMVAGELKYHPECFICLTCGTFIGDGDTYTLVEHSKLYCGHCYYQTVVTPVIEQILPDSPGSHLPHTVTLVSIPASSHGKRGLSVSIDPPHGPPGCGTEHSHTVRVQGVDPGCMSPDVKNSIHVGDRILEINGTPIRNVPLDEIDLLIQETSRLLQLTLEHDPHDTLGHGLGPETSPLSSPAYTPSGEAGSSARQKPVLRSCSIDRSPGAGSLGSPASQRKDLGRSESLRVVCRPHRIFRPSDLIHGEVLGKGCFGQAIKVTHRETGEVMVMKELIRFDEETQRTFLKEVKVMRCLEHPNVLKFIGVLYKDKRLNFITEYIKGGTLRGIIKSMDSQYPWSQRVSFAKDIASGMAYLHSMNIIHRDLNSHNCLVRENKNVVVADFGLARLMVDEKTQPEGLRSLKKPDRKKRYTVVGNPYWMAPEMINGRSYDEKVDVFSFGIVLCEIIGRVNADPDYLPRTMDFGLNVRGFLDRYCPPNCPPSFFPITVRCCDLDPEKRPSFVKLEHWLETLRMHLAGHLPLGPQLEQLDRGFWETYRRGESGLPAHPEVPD
Sequence of ALK4 (P36896 24-505): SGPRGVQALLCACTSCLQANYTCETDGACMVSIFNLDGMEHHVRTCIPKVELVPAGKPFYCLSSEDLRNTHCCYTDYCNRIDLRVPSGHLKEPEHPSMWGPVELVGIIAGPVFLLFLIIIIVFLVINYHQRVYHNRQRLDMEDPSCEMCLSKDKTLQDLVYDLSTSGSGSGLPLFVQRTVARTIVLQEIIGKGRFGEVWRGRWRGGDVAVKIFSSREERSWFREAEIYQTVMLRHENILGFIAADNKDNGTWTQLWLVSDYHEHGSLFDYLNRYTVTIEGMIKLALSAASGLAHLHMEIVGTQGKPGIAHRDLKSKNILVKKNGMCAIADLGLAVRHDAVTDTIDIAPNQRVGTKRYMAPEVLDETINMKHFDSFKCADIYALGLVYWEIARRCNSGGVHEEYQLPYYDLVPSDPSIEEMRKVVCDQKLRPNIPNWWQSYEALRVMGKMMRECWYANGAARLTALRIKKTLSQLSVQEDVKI
Sequence of CRAF (P04049 whole entry): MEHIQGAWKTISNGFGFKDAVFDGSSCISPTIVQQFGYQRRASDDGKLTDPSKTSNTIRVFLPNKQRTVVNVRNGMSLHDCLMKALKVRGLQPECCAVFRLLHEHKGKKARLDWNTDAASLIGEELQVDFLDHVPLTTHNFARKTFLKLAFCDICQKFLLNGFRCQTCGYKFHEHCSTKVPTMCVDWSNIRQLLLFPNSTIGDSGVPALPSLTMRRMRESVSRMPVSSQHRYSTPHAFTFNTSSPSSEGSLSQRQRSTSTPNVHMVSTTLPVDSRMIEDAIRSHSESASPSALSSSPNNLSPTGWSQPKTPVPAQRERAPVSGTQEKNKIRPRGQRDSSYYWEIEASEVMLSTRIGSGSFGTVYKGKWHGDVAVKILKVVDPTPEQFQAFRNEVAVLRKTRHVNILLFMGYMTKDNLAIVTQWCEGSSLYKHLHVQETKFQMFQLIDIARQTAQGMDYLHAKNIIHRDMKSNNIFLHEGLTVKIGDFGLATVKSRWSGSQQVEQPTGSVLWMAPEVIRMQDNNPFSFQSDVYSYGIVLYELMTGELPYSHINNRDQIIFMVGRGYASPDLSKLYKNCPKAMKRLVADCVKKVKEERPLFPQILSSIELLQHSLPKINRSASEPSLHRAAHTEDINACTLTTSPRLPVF
Sequence of FGR (P09769 whole entry): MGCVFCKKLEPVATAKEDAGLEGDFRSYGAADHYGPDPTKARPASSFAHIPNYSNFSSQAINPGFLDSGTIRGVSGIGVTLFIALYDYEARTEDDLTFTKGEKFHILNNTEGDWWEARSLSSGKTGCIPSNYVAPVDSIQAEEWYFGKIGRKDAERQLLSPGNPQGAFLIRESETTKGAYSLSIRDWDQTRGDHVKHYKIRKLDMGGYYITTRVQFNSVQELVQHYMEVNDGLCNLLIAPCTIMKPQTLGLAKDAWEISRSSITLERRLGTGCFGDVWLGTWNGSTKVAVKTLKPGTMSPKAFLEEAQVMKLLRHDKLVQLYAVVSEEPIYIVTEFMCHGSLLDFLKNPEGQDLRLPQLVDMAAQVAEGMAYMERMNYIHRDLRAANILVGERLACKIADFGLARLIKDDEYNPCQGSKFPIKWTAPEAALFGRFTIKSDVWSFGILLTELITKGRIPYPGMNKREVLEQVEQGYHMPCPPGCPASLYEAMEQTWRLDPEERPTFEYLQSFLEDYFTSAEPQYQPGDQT
Sequence of PDK1 (O15530 whole entry): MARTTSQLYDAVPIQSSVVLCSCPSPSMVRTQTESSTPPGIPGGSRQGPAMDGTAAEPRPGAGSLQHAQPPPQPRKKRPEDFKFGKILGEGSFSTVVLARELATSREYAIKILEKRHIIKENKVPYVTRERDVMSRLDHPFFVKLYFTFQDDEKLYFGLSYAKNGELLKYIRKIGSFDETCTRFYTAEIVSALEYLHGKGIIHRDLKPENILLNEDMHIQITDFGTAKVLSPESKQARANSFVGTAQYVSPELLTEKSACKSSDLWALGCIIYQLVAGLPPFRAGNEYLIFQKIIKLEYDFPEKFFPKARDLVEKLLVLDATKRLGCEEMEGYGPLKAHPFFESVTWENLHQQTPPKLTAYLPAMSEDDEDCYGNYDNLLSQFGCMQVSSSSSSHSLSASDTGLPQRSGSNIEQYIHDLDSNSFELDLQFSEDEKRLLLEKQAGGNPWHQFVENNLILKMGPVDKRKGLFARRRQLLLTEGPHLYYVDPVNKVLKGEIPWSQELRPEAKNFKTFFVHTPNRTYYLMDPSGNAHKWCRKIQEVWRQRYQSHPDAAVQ
Sequence of CK2ALPHA2 (P19784 whole entry): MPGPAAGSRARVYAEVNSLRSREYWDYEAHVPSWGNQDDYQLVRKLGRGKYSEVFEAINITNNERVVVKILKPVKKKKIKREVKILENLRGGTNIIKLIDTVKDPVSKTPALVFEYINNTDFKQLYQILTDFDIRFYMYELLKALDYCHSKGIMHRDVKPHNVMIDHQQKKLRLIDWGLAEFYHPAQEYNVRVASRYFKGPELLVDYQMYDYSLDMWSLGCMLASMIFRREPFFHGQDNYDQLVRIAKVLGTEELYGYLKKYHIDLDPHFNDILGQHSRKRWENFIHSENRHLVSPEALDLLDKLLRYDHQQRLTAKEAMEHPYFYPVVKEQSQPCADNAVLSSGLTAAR
Sequence of CHK1 (O14757 whole entry): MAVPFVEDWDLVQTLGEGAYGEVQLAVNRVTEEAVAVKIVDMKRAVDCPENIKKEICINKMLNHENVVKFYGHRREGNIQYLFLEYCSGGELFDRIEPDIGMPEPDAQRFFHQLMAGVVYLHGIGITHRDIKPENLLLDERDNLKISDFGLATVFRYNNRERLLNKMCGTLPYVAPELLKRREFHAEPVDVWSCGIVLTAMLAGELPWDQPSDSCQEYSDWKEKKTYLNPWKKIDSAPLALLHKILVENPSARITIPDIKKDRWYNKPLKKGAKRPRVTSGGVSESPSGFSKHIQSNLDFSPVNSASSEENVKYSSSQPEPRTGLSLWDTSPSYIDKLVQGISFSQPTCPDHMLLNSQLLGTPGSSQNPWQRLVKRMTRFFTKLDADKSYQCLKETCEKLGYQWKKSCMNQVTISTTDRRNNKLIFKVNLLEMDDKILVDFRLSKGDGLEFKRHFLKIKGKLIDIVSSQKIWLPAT
Sequence of JNK2ALPHA2 (P45984 whole entry): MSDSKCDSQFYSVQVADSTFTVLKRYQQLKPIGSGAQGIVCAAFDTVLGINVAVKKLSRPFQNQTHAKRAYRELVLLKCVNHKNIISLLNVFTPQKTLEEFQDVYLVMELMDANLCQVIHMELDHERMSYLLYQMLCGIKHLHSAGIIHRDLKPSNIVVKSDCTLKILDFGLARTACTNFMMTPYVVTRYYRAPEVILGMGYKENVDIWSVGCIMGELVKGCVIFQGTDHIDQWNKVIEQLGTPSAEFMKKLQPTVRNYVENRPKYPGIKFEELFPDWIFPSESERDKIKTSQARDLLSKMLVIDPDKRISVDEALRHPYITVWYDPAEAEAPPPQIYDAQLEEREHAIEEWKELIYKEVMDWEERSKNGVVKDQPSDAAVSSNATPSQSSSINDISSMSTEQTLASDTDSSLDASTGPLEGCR

## COC1CN(C(=O)c2ccc3c(N)ncc(-c4ccc(-c5cnn(C)c5)cc4)c3n2)C1 [Compound 51]
[1]
  percentage effect: 9%
[2]
  percentage effect: 10%
[3]
  percentage effect: 6%
[4]
  percentage effect: -10%
[5]
  percentage effect: -17%
[6]
  percentage effect: -1%
[7]
  percentage effect: 20%
[8]
  percentage effect: -8%
[9]
  percentage effect: 0%
[10]
  percentage effect: 21%
[11]
  percentage effect: 7%
[12]
  percentage effect: -4%
[13]
  percentage effect: 7%
[14]
  percentage effect: 19%
[15]
  percentage effect: 1%
[16]
  percentage effect: -6%
[17]
  percentage effect: -6%
[18]
  percentage effect: 0%
[19]
  percentage effect: 1%
[20]
  percentage effect: 0%
[21]
  percentage effect: -11%
[22]
  percentage effect: 9%
[23]
  percentage effect: 7%
[24]
  percentage effect: -12%
[25]
  percentage effect: -8%
[26]
  percentage effect: -3%
[27]
  percentage effect: 14%
[28]
  percentage effect: 5%
[29]
  percentage effect: 0%
[30]
  percentage effect: -3%
[31]
  percentage effect: -20%
[32]
  percentage effect: 4%
[33]
  percentage effect: 8%
[34]
  percentage effect: -23%
[35]
  percentage effect: -23%
[36]
  percentage effect: 25%
[37]
  percentage effect: -24%
[38]
  percentage effect: 0%
[39]
  percentage effect: 6%
[40]
  percentage effect: 2%
[41]
  percentage effect: 3%
[42]
  percentage effect: 3%
[43]
  percentage effect: -12%
[44]
  percentage effect: 1%
[45]
  percentage effect: -4%

## COC1CN(C(=O)c2ccc3c(N)ncc(-c4ccc(-c5cnn(C)c5)cc4)c3c2)C1 [Compound 59]
[1]
  percentage effect: 8%
[2]
  percentage effect: 5%
[3]
  percentage effect: 2%
[4]
  percentage effect: -5%
[5]
  percentage effect: 23%
[6]
  percentage effect: 1%
[7]
  percentage effect: -4%
[8]
  percentage effect: -9%
[9]
  percentage effect: 13%
[10]
  percentage effect: 7%
[11]
  percentage effect: -11%
[12]
  percentage effect: 1%
[13]
  percentage effect: -4%
[14]
  percentage effect: 7%
[15]
  percentage effect: -9%
[16]
  percentage effect: 2%
[17]
  percentage effect: 2%
[18]
  percentage effect: -5%
[19]
  percentage effect: -3%
[20]
  percentage effect: 5%
[21]
  percentage effect: -13%
[22]
  percentage effect: -23%
[23]
  percentage effect: -34%
[24]
  percentage effect: 25%
[25]
  percentage effect: -10%
[26]
  percentage effect: -2%
[27]
  percentage effect: 8%
[28]
  percentage effect: -12%
[29]
  percentage effect: 17%
[30]
  percentage effect: -11%
[31]
  percentage effect: 0%
[32]
  percentage effect: 4%
[33]
  percentage effect: 3%
[34]
  percentage effect: 17%
[35]
  percentage effect: 0%
[36]
  percentage effect: -5%
[37]
  percentage effect: -9%
[38]
  percentage effect: 0%
[39]
  percentage effect: 22%
[40]
  percentage effect: -19%
[41]
  percentage effect: -18%
[42]
  percentage effect: 8%
[43]
  percentage effect: -5%
[44]
  percentage effect: -6%
[45]
  percentage effect: 4%
